Assay results reported in patent publication US8735414B2 (priority 2009, dated 2014).

Tested on: not given
Test: not given
Settings: not given

Row | SMILES | melting point [°C]
1 | CC(C)NS(=O)(=O)c1ccc(-c2c(C#N)c3ccc(OC(F)F)cc3n2C(C)C)nc1 [compound 1, 6-[3-cyano-6-(difluoromethoxy)-1-(propan-2-yl)-1H-indol-2-yl]-N-(propan-2-yl)pyridine-3-sulfonamide] | 157 to 159
2 | CCCn1c(-c2ccc(S(=O)(=O)NC(C)C)cn2)c(C#N)c2ccc(OC(F)F)cc21 [compound 3, 6-[3-cyano-6-(difluoromethoxy)-1-propyl-1H-indol-2-yl]-N-(propan-2-yl)pyridine-3-sulfonamide] | 166 to 170
3 | CC(C)NS(=O)(=O)c1ccc(-c2c(C#N)c3cc(F)ccc3n2C2CCC2)nc1 [compound 5, 6-(3-cyano-1-cyclobutyl-5-fluoro-1H-indol-2-yl)-N-(propan-2-yl)pyridine-3-sulfonamide] | 203 to 205
4 | CC(C)NS(=O)(=O)c1ccc(-c2c(C#N)c3ccc(C4CC4)cc3n2C2CCC2)nc1 [compound 7, 6-(3-cyano-1-cyclobutyl-6-cyclopropyl-1H-indol-2-yl)-N-(propan-2-yl)pyridine-3-sulfonamide] | 174 to 176
5 | CC(C)NS(=O)(=O)c1ccc(-c2c(C#N)c3cc(C4CC4)ccc3n2C2CCC2)nc1 [compound 8, 6-(3-cyano-1-cyclobutyl-5-cyclopropyl-1H-indol-2-yl)-N-(propan-2-yl)pyridine-3-sulfonamide] | 172 to 174
6 | CC(C)NS(=O)(=O)c1ccc(-c2c(C#N)c3ccc(OC(F)(F)F)cc3n2C2CCC2)nc1 [compound 10, 6-[3-cyano-1-cyclobutyl-6-(trifluoromethoxy)-1H-indol-2-yl]-N-(propan-2-yl)pyridine-3-sulfonamide] | 191 to 193
7 | CC(C)NS(=O)(=O)c1ccc(-c2c(C#N)c3ccc(OC(F)F)cc3n2CC2CC2)nc1 [compound 13, 6-[3-cyano-1-(cyclopropylmethyl)-6-(difluoromethoxy)-1H-indol-2-yl]-N-(propan-2-yl)pyridine-3-sulfonamide] | 154 to 156
8 | CC(C)NS(=O)(=O)c1ccc(-c2c(C#N)c3ccc(SC(C)C)cc3n2C2CCC2)nc1 [compound 16, 6-[3-cyano-1-cyclobutyl-6-(propan-2-ylsulfanyl)-1H-indol-2-yl]-N-(propan-2-yl)pyridine-3-sulfonamide] | 129 to 131
9 | CC(C)NS(=O)(=O)c1ccc(-c2c(C#N)c3cc(OC(F)F)ccc3n2C2CCC2)nc1 [compound 19, 6-[3-cyano-1-cyclobutyl-5-(difluoromethoxy)-1H-indol-2-yl]-N-(propan-2-yl)pyridine-3-sulfonamide] | 148 to 153
10 | CC(C)NS(=O)(=O)c1ccc(-c2c(C#N)c3cc(OC(F)(F)F)ccc3n2C2CCC2)nc1 [compound 23, 6-[3-cyano-1-cyclobutyl-5-(trifluoromethoxy)-1H-indol-2-yl]-N-(propan-2-yl)pyridine-3-sulfonamide] | 174 to 176
11 | N#Cc1c(-c2ccc(S(=O)(=O)NC(CF)CF)cn2)n(C2CCC2)c2cc(OC(F)F)ccc12 [compound 31, 6-[3-cyano-1-cyclobutyl-6-(difluoromethoxy)-1H-indol-2-yl]-N-(1,3-difluoropropan-2-yl)pyridine-3-sulfonamide] | 159 to 161
12 | N#Cc1c(-c2ccc(S(=O)(=O)NC(CF)CF)cn2)n(C2CCC2)c2cc(C3CC3)ccc12 [compound 35, 6-(3-cyano-1-cyclobutyl-6-cyclopropyl-1H-indol-2-yl)-N-(1,3-difluoropropan-2-yl)pyridine-3-sulfonamide] | 175 to 178
13 | CC(C)NS(=O)(=O)c1ccc(-c2c(C#N)c3ccc(OC(F)F)cc3n2CC2CC2)cn1 [compound 40, 5-[3-cyano-1-(cyclopropylmethyl)-6-(difluoromethoxy)-1H-indol-2-yl]-N-(propan-2-yl)pyridine-2-sulfonamide] | 186 to 188
14 | CC(C)NS(=O)(=O)c1ccc(-c2c(C#N)c3ccc(OC(F)F)cc3n2C2CCC2)nc1 [compound 51, 6-[3-cyano-1-cyclobutyl-6-(difluoromethoxy)-1H-indol-2-yl]-N-(propan-2-yl)pyridine-3-sulfonamide] | 158 to 159
15 | CC(C)NS(=O)(=O)c1ccc(-c2c(C#N)c3ccc(OC(F)F)cc3n2C2CCCC2)nc1 [compound 52, 6-[3-cyano-1-cyclopentyl-6-(difluoromethoxy)-1H-indol-2-yl]-N-(propan-2-yl)pyridine-3-sulfonamide] | 157 to 158
16 | CC(C)NS(=O)(=O)c1ccc(-c2c(C#N)c3ccc(OCC(F)F)cc3n2C2CCC2)nc1 [compound 59, 6-[3-cyano-1-cyclobutyl-6-(2,2-difluoroethoxy)-1H-indol-2-yl]-N-(propan-2-yl)pyridine-3-sulfonamide] | 171 to 173
17 | CC(C)(CF)NS(=O)(=O)c1ccc(-c2c(C#N)c3ccc(OC(F)F)cc3n2C2CCC2)nc1 [compound 77, 6-[3-cyano-1-cyclobutyl-6-(difluoromethoxy)-1H-indol-2-yl]-N-(1-fluoro-2-methylpropan-2-yl)pyridine-3-sulfonamide] | 171 to 178
18 | CC(NS(=O)(=O)c1ccc(-c2c(C#N)c3ccc(OC(F)F)cc3n2C2CCC2)nc1)C(F)(F)F (stereo not shown) [compound 78, 6-[3-cyano-1-cyclobutyl-6-(difluoromethoxy)-1H-indol-2-yl]-N-(1,1,1-trifluoropropan-2-yl)pyridine-3-sulfonamide] | 159 to 165
19 | N#Cc1c(-c2ccc(S(=O)(=O)NC3(C(F)(F)F)CC3)cn2)n(C2CCC2)c2cc(OC(F)F)ccc12 [compound 93, 6-[3-cyano-1-cyclobutyl-6-(difluoromethoxy)-1H-indol-2-yl]-N-[1-(trifluoromethyl)cyclopropyl]pyridine-3-sulfonamide] | 182 to 187
20 | CC(C)NS(=O)(=O)c1ccc(-c2c(C#N)c3ccc(OC(F)F)cc3n2C2CCCCC2)nc1 [compound 99, 6-[3-cyano-1-cyclohexyl-6-(difluoromethoxy)-1H-indol-2-yl]-N-(propan-2-yl)pyridine-3-sulfonamide] | 187 to 190
21 | N#Cc1c(-c2ccc(S(=O)(=O)NC3(C(F)(F)F)CCC3)cn2)n(C2CCC2)c2cc(OC(F)F)ccc12 [compound 106, 6-[3-cyano-1-cyclobutyl-6-(difluoromethoxy)-1H-indol-2-yl]-N-[1-(trifluoromethyl)cyclobutyl]pyridine-3-sulfonamide] | 162 to 168
22 | C[C@H](NS(=O)(=O)c1ccc(-c2c(C#N)c3ccc(OC(F)F)cc3n2C2CCC2)nc1)C1CC1 [compound 151, 6-[3-cyano-1-cyclobutyl-6-(difluoromethoxy)-1H-indol-2-yl]-N-[(1S)-1-cyclopropylethyl]pyridine-3-sulfonamide] | 163 to 168
23 | N#Cc1c(-c2ccc(S(=O)(=O)NC3(C(F)(F)F)CC3)cn2)n(C2CCC2)c2cc(C3CC3)ccc12 [compound 153, 6-(3-cyano-1-cyclobutyl-6-cyclopropyl-1H-indol-2-yl)-N-[1-(trifluoromethyl)cyclopropyl]pyridine-3-sulfonamide] | 166 to 171
24 | CC(C)NS(=O)(=O)c1cnc(-c2c(C#N)c3ccc(OC(F)F)cc3n2CC2CC2)nc1 [compound 170, 2-[3-cyano-1-(cyclopropylmethyl)-6-(difluoromethoxy)-1H-indol-2-yl]-N-(propan-2-yl)pyrimidine-5-sulfonamide] | 182 to 184

Tested on: bicistronic HCV replicon (replicon RNA, GenBank Accession No. AJ242654)
Test: HCV Replicon Assay
Type: cell-based
Settings: Hepatitis C virus, 72 h, read-out: Replicon IC50

Row | SMILES | IC50 [nM]
25 | Cc1cc(NS(=O)(=O)C(C)(C)C)ncc1-c1c(C(=O)O)c2cc(F)c(OC(F)F)cc2n1[C@H](C)C1CC1 [compound 1086, 2-{6-[(tert-butylsulfonyl)amino]-4-methylpyridin-3-yl}-1-[(1R)-1-cyclopropylethyl]-6-(difluoromethoxy)-5-fluoro-1H-indole-3-carboxylic acid] | < 500
26 | Cc1nc(NS(=O)(=O)C(C)(C)C)ccc1-c1c(C(=O)O)c2cc(F)c(OC(F)F)cc2n1C(C)C [compound 1093, 2-{6-[(tert-butylsulfonyl)amino]-2-methylpyridin-3-yl}-6-(difluoromethoxy)-5-fluoro-1-(propan-2-yl)-1H-indole-3-carboxylic acid] | 500 to 2000
27 | Cc1nc(NS(=O)(=O)C(C)(C)C)ccc1-c1c(C(=O)O)c2cc(F)c(OC(F)F)cc2n1[C@H](C)C1CC1 [compound 1094, 2-{6-[(tert-butylsulfonyl)amino]-2-methylpyridin-3-yl}-1-[(1R)-1-cyclopropylethyl]-6-(difluoromethoxy)-5-fluoro-1H-indole-3-carboxylic acid] | < 500
28 | COC(=O)c1c(-c2ccc(NS(=O)(=O)C(C)(C)C)nc2)n(C2CCCCC2)c2cc(OCF)c(F)cc12 [compound 1099, methyl 2-{6-[(tert-butylsulfonyl)amino]pyridin-3-yl}-1-cyclohexyl-5-fluoro-6-(fluoromethoxy)-1H-indole-3-carboxylate] | 500 to 2000
29 | [2H]C([2H])([2H])c1cc2c(cc1F)c(C#N)c(-c1ccc(S(=O)(=O)N[C@@]([2H])(C)C(F)(F)F)cn1)n2-c1ncccn1 [compound 1107, 6-[3-cyano-5-fluoro-6-(1,1,1-trideuterium)methyl-1-(pyrimidin-2-yl)-1H-indol-2-yl]-N-[(2S)-1,1,1-trifluoro(2-deuterium)propan-2-yl]pyridine-3-sulfonamide] | < 500
30 | [2H][C@@](C)(NS(=O)(=O)c1ccc(-c2c(C#N)c3cc(F)c(C)cc3n2C2CCC2)nc1)C(F)(F)F [compound 1113, 6-(3-cyano-1-cyclobutyl-5-fluoro-6-methyl-1H-indol-2-yl)-N-[(2S)-1,1,1-trifluoro(2-deuterium)propan-2-yl]pyridine-3-sulfonamide] | < 500
31 | [2H]C(C)(C)NS(=O)(=O)c1ccc(-c2c(C#N)c3cc(F)c(C([2H])([2H])[2H])cc3n2CC2CC2)nc1 [compound 1119, 6-[3-cyano-1-(cyclopropylmethyl)-5-fluoro-6-(1,1,1-trideuterium)methyl-1H-indol-2-yl]-N-[(2-deuterium)propan-2-yl]pyridine-3-sulfonamide] | < 500
